Results reported in patent US20120238449A1, “SYNERGISTIC HERBICIDAL COMPOSITION CONTAINING PENOXSULAM AND PYROXSULAM” (priority 2011, published 2012).

How the values were obtained:
Type in all cases: in vivo
[1] = tested on: Shepherd's purse (Capsella bursa-pastoris, CAPBP); assay: Field trial, percent visual weed control of CAPBP; settings: 39-51 days after application
Method: (§1) These trials were conducted under field conditions in France, Poland and Syria. Trial sites were located in commercially grown crops wheat, barley and corn. The crops were grown using normal cultural practices for fertilization, seeding, and maintenance to ensure good growth of the crop and the weeds. The trials were conducted using typical small plot herbicide research methodology. Trial plots were between 1 to 2.5 meters (m) wide by 6 to 42 m long. All treatments were applied using a randomized complete block trial design with 2 to 4 replications per treatment. The trial sites had naturally occurring populations of weeds. The weed spectrum included, but was not limited to, wild oat (Avena fatua, AVEFA); Shepherd's purse (Capsella bursa-pastoris, CAPBP); common lambsquarter (Chenopodium album, CHEAL); barnyardgrass (Echinochloa crus-galli, ECHCG); ryegrass (Lolium spp., LOLSS); short-spiked canarygrass (Phalaris brachystachys, PHABR); awned canarygrass (Phalaris paradoxa, PHAPA); narrow-leaved plantain (Plantago lanceolata, PLALA); annual […] (Poa annua, POAAN); and wild buckwheat (Polygonum convolvulus, POLCO).
(§2) Treatments consisted of tank mixes of penoxsulam and pyroxsulam or pyroxsulam+cloquintocet (mexyl) applied in water. Where used, Actirob B adjuvant was applied at use rate of 0.2 to 1 liter per hectare (L/ha) with pyroxsulam containing treatments and in tankmixes. […]

[2] = tested on: common lambsquarter (Chenopodium album, CHEAL); assay: Field trial, percent visual weed control of CHEAL; settings: 39-51 days after application
Method: as §1, §2

[3] = tested on: barnyardgrass (Echinochloa crus-galli, ECHCG); assay: Field trial, percent visual weed control of ECHCG; settings: 39-51 days after application
Method: as §1, §2

[4] = tested on: wild buckwheat (Polygonum convolvulus, POLCO); assay: Field trial, percent visual weed control of POLCO; settings: 39-51 days after application
Method: as §1, §2

[5] = tested on: wild oat (Avena fatua, AVEFA); assay: Field trial, percent visual weed control of AVEFA; settings: 28 to 56 days after application
Method: as §1, §2

[6] = tested on: short-spiked canarygrass (Phalaris brachystachys, PHABR); assay: Field trial, percent visual weed control of PHABR; settings: 28 to 56 days after application
Method: as §1, §2

[7] = tested on: awned canarygrass (Phalaris paradoxa, PHAPA); assay: Field trial, percent visual weed control of PHAPA; settings: 28 to 56 days after application
Method: as §1, §2

[8] = tested on: ryegrass (Lolium spp., LOLSS); assay: Field trial, percent visual weed control of LOLSS; settings: 14 to 61 days after application
Method: as §1, §2

[9] = tested on: narrow-leaved plantain (Plantago lanceolata, PLALA); assay: Field trial, percent visual weed control of PLALA; settings: 14 to 61 days after application
Method: as §1, §2

[10] = tested on: annual blackgrass (Poa annua, POANN); assay: Field trial, percent visual weed control of POANN; settings: 14 to 61 days after application
Method: as §1, §2

| SMILES | Control of CAPBP, Obs (Observed Response) ([1]; penoxsulam 5 g ai/ha alone) [%] | Control of CHEAL, Obs (Observed Response) ([2]; penoxsulam 5 g ai/ha alone) [%] | Control of ECHCG, Obs (Observed Response) ([3]; penoxsulam 5 g ai/ha alone) [%] | Control of POLCO, Obs (Observed Response) ([4]; penoxsulam 5 g ai/ha alone) [%] | Control of AVEFA, Obs (Observed Response) ([5]; penoxsulam 20 g ai/ha alone) [%] | Control of PHABR, Obs (Observed Response) ([6]; penoxsulam 20 g ai/ha alone) [%] | Control of PHAPA, Obs (Observed Response) ([7]; penoxsulam 20 g ai/ha alone) [%] | Control of LOLSS, Obs (Observed Response) ([8]; penoxsulam 20 g ai/ha alone) [%] | Control of PLALA, Obs (Observed Response) ([9]; penoxsulam 20 g ai/ha alone) [%] | Control of POANN, Obs (Observed Response) ([10]; penoxsulam 20 g ai/ha alone) [%] | Control of CAPBP, Obs (Observed Response) ([1]; pyroxsulam 4 g ai/ha alone) [%] | Control of CHEAL, Obs (Observed Response) ([2]; pyroxsulam 4 g ai/ha alone) [%] | Control of ECHCG, Obs (Observed Response) ([3]; pyroxsulam 4 g ai/ha alone) [%] | Control of POLCO, Obs (Observed Response) ([4]; pyroxsulam 4 g ai/ha alone) [%] | Control of AVEFA, Obs (Observed Response) ([5]; pyroxsulam 18 g ai/ha alone) [%] | Control of PHABR, Obs (Observed Response) ([6]; pyroxsulam 18 g ai/ha alone) [%] | Control of PHAPA, Obs (Observed Response) ([7]; pyroxsulam 18 g ai/ha alone) [%] | Control of LOLSS, Obs (Observed Response) ([8]; pyroxsulam 20 g ai/ha alone) [%] | Control of PLALA, Obs (Observed Response) ([9]; pyroxsulam 20 g ai/ha alone) [%] | Control of POANN, Obs (Observed Response) ([10]; pyroxsulam 20 g ai/ha alone) [%] |
| --- | --- | --- | --- | --- | --- | --- | --- | --- | --- | --- | --- | --- | --- | --- | --- | --- | --- | --- | --- | --- |
| COc1cnc(OC)n2nc(NS(=O)(=O)c3c(OCC(F)F)cccc3C(F)(F)F)nc12 [Penoxsulam, 2-(2,2-difluoroethoxy)-N-(5,8-dimethoxy-[1,2,4]triazolol1,5-clpyrimidin-2-yl)-6-(trifluoromethyl)benzenesulfonamide] | 20 | 10 | 0 | 50 | 0 | 0 | 0 | 20 | 13 | 17 | – | – | – | – | – | – | – | – | – | – |
| COc1cc(OC)n2nc(NS(=O)(=O)c3c(C(F)(F)F)ccnc3OC)nc2n1 [Pyroxsulam, N-(5,7-dimethoxy[1,2,4]triazolol1,5-alpyrimidin-2-yl)-2-methoxy-4-(trifluoromethyl)-3-pyridinesulfonamide] | – | – | – | – | – | – | – | – | – | – | 70 | 65 | 65 | 35 | 65 | 38 | 80 | 0 | 7 | 0 |
